Test results from article PMC4685510, “A Cell Biologist’s Field Guide to Aurora Kinase Inhibitors” (Frontiers in Oncology, 2015).
Where two headings read alike, the source gives them in different places.

Key:
[1] = system: pAuroraA(Thr 288) in HeLa cells; test: Immunoblotting of Aurora A activation loop phosphorylation; format: cell-based, human; conditions: for Effect on pAuroraA(Thr 288): dose–response; for IC50: Homo sapiens, read-out: IC50 pAuroraA(Thr 288)
[2] = system: pH3(Ser 28) in RPE1 cells; test: Substrate phosphorylation immunofluorescence assay, pH3(Ser 28), RPE1; format: cell-based, human
Procedure: Asynchronous cells were incubated with vehicle (DMSO) or different inhibitor doses for 8 h and then fixed and labeled with a mixture of three antibodies directed against pLATS2(Ser 83), pH3(Ser 28), and MPM2 [which detects mitotic phosphoepitopes; ([86])]. While both the anti-pLATS2(Ser 83) and MPM2 antibodies are mouse monoclonals, they are of different IgG subclasses [IgG2b for anti-pLATS2(Ser 83) and IgG1 for MPM2], and can thus be detected with subclass-specific secondary antibodies (Table S3 in Supplementary Material).
Cells were imaged in 4 channels to visualize pLATS2(Ser 83), pH3(Ser 28), MPM2, and DNA (labeled with Hoechst) and mitotic cells were segmented based on their bright MPM2 labeling (Figure 3E). Intensity and area thresholds were set to select the pLATS2(Ser 83) foci and the pH3(Ser 28)-labeled chromatin in their respective channels in DMSO-treated control cells and the same thresholds were applied for inhibitor-treated cells. The mean fluorescence intensity per pixel was measured to assess the activities of the kinases targeting these two substrate phosphorylation sites.
After 8 h cells were fixed with 4% PFA for 20 min at room temperature. The fixed cells were washed with PBS. For immunostaining, cells were permeabilized and blocked with PBS containing 10% normal donkey serum (Jackson ImmunoResearch) and 0.1% Triton-X100 for 1 h at room temperature. Primary antibodies against phospho-LATS2 (Ser 83), phospho-histone H3(Ser 28), and anti-phospho-MPM2 (see Table S3 in Supplementary Material) were incubated for 1 h at room temperature. […] Cells were then washed twice with PBS containing 0.1% Triton-X100. […] Fifty fields per well were imaged with quadruplicate wells for each condition. Image analysis was done using the CV7000 image analysis software (Yokogawa Electric Corporation). Between 100 and 1,000 mitotic cells per condition were segmented applying object identification parameters to select for bright MPM2 labeling. Using a nuclear identifier protocol, minimum intensity thresholds were set for pLATS2(Ser 83) and the pH3(Ser 28) signals, and the resulting identified objects were eroded, dilated, and filtered for size by user-defined thresholds. […] The same thresholds were applied for all of the inhibitor-treated samples, which were processed, imaged, and analyzed in parallel with control DMSO-treated cells. Data were fit using a four-parameter, variable slope fit in Prism (GraphPad).

[3] = biological target: T1, 363 human kinases (including Aurora A/B/C) (Homo sapiens, UniProt Q12852); test: biochemical; format: biochemical; conditions: DLK/MAP3K12, [ATP] 30 µM; for remaining activity at 0.1 µM: 100 nM; for remaining activity at 0.1 µM / remaining activity at 0.5 µM: read-out: % Enzyme Activity (relative to DMSO controls)
T1 sequence (Q12852 1-859): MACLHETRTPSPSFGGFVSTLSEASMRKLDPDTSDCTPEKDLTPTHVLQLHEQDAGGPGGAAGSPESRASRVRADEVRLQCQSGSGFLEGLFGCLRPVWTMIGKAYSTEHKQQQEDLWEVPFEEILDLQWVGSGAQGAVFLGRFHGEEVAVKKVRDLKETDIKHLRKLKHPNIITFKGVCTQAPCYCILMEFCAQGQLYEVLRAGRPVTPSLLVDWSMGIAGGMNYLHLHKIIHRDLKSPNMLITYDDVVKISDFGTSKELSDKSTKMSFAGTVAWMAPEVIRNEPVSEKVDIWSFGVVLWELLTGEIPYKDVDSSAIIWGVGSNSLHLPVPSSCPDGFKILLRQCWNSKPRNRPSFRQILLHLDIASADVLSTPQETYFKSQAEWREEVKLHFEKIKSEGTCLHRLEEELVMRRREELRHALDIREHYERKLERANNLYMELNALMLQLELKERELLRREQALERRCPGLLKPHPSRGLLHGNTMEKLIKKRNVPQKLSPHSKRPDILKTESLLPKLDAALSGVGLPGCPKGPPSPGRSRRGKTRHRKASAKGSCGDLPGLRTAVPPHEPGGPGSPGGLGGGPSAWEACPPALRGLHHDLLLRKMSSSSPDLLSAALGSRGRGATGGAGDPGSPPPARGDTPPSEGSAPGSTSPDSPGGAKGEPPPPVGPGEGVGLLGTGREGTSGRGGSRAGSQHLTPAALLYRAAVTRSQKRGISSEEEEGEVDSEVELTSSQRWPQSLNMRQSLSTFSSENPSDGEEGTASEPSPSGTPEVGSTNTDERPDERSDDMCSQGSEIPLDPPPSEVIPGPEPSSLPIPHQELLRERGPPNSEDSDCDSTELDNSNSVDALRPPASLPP
Source text: (§1) However, the Aurora A/B selectivity ratios derived from our in vitro and in vivo data can be compared to prioritize inhibitors.

[4] = biological target: T2, 363 human kinases (including Aurora A/B/C) (Homo sapiens, UniProt O14757); test: biochemical; format: biochemical; conditions: CHK1, [ATP] 20 µM; for remaining activity at 0.1 µM: 100 nM; for remaining activity at 0.1 µM / remaining activity at 0.5 µM: read-out: % Enzyme Activity (relative to DMSO controls)
T2 sequence (O14757 1-476): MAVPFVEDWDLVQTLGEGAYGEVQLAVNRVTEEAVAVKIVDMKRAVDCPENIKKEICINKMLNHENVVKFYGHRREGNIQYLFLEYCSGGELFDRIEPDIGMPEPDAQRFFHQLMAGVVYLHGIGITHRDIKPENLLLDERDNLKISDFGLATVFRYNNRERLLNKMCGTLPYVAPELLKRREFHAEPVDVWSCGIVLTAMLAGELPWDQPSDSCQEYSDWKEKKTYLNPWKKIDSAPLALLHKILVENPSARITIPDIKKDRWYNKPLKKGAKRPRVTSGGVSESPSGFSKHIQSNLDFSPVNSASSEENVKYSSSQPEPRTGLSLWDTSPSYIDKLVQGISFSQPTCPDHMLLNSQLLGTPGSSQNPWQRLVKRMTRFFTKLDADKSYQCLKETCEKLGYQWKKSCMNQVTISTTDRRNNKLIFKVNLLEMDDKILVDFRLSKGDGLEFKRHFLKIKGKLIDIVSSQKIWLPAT
Source text: as §1

SMILES | Effect on Aurora A activity (pAuroraA Thr 288) ([1]; immunoblot, 300 nM (Figure S6)) | Effect on pAuroraA(Thr 288) ([1]; immunoblot) | IC50 ([2]; Homo sapiens, RPE-1, 8 h, read-out: pHistone H3 (Ser28) IC50) | remaining activity at 0.1 µM [3] | remaining activity at 0.1 µM [4] | IC50 [1] | inhibition at 15 µM ([2]; Homo sapiens, RPE-1, read-out: pHistone H3 (Ser28) inhibition at highest concentration tested) | remaining activity at 0.5 µM ([3]; 500 nM) | remaining activity at 0.5 µM ([4]; 500 nM) | IC50 ([1]; immunoblot, taxol-arrested mitotic lysates) | pHistone H3 (Ser28) IC50 ([2]; RPE1, 8 h inhibitor treatment) | % Enzyme Activity (relative to DMSO controls) ([3]; 500 nM) | % Enzyme Activity (relative to DMSO controls) ([4]; 500 nM)
CCn1cc(-c2ccnc3[nH]c(-c4cccc(CN(C)C)c4)cc23)c(-c2ccc(NC(=O)N(C)C)cc2)n1 [GSK1070916] | inhibited Aurora A activity | did not affect | 15 nM | 80.4% | 98.7% | – | – | – | – | – | – | – | –
O=C(O)[C@]1(Cc2cccc(Nc3nccs3)n2)CC[C@@H](Oc2cccc(Cl)c2F)CC1 [MK-5108] | – | completely eliminate Thr 288 phosphorylation | – | 72.1% | 103% | < 100 nM | 80% | 23.1% | 148% | – | – | – | –
O=C(c1cccc(Cl)c1F)N1CCN(Cc2cccc(Nc3nccs3)n2)CC1 [MK-8745] | – | completely eliminate Thr 288 phosphorylation | – | – | – | – | – | 59.2% | 105% | < 100 nM | NE@15 µM | 53.85% | 104.15%
